From ChEMBL document CHEMBL2396519, “Structure-based design of β-site APP cleaving enzyme 1 (BACE1) inhibitors for the treatment of Alzheimer's disease” (J Med Chem, 2013)

Experiments:
Mus musculus [1] = test: Inhibition of BACE1 in TASTPM mouse assessed as reduced brain Abeta42 at 250 mg/kg, po bid after 5 days; format: functional; conditions: 120 h
Mus musculus [2] = test: Inhibition of BACE1 in TASTPM mouse assessed as reduced brain Abeta40 at 250 mg/kg, po bid after 5 days; format: functional; conditions: 120 h
[3] = target: T1, Beta-secretase 2 (Homo sapiens) (UniProt Q9Y5Z0); test: Inhibition of BACE2 (unknown origin)
T1 sequence (whole entry): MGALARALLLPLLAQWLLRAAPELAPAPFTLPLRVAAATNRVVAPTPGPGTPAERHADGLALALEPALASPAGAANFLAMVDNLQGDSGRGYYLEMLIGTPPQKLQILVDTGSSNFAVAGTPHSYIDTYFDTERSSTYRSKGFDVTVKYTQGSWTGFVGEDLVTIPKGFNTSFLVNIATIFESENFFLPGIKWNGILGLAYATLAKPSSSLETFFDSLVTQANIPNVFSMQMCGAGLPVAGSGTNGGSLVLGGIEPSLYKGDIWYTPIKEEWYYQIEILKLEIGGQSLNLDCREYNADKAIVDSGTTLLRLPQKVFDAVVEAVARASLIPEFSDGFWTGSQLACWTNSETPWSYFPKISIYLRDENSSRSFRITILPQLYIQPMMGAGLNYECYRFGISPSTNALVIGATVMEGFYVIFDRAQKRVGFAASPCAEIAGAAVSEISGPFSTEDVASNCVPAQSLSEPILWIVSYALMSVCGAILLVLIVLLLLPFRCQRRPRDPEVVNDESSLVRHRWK

[4] = target: Beta-secretase 1 (Homo sapiens) (UniProt P56817); test: Inhibition of BACE1 (unknown origin) in a cell-based assay
Beta-secretase 1 (Homo sapiens), sequence (P56817 whole entry): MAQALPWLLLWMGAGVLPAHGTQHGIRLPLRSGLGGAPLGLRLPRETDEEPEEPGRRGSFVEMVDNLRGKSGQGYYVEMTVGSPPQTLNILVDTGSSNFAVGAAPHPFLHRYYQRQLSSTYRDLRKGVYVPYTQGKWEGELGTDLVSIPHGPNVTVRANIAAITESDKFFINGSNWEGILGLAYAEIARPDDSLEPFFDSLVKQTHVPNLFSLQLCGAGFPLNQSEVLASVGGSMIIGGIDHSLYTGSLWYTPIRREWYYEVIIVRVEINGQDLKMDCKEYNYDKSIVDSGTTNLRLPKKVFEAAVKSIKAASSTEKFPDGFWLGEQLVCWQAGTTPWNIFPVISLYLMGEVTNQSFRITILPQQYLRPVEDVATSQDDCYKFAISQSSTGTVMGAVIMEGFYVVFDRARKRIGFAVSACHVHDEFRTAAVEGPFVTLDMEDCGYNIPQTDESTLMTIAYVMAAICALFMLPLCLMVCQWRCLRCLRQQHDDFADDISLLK

[5] = target: Beta-secretase 1 (Homo sapiens) (UniProt P56817); test: Inhibition of human recombinant BACE1 using MBP-C12Swe as substrate by FRET assay
Homo sapiens [6] = test: Inhibition of BACE1 in alzheimer's disease patient assessed as reduction of plasma Abeta40 level at 90 mg/kg after 7 hrs; format: functional
Homo sapiens [7] = test: Inhibition of BACE1 in alzheimer's disease patient assessed as reduction of plasma Abeta40 level at 90 mg/kg after 24 hrs; format: functional
Canis familiaris [8] = test: Inhibition of BACE1 in beagle dog assessed as reduced plasma Abeta level at 5 mg/kg, po after 4 to 12 hrs; format: functional; conditions: Canis lupus familiaris
Canis familiaris [9] = test: Inhibition of BACE1 in beagle dog assessed as reduced CSF Abeta level at 5 mg/kg, po after 3 hrs; format: functional; conditions: Canis lupus familiaris
Canis familiaris [10] = test: Inhibition of BACE1 in beagle dog assessed as reduced CSF Abeta level at 5 mg/kg, po after 9 hrs; format: functional; conditions: Canis lupus familiaris
[11] = Half life in beagle dog at 5 mg/kg, po; format: ADME, organism-based, Canis lupus familiaris; set-up: dose 5 mg/kg, route oral; conditions: in vivo
Brain [12] = test: Drug uptake in mouse brain at 100 mg/kg, po; format: ADME, organism-based; set-up: dose 100 mg/kg, route oral; conditions: in vivo
[13] = Plasma concentration in beagle dog at 5 mg/kg, po after 1 hr; format: ADME, organism-based, Canis lupus familiaris; set-up: dose 5 mg/kg, route oral
Brain [14] = test: Drug uptake in mouse brain at 10 mg/kg, po; format: ADME, organism-based; set-up: dose 10 mg/kg, route oral; conditions: in vivo
Brain [15] = test: Drug uptake in mouse brain at 30 mg/kg, po; format: ADME, organism-based; set-up: dose 30 mg/kg, route oral; conditions: in vivo
Sus scrofa = species: Sus scrofa; test: Inhibition of pig gastric mucosa pepsin
Renin (Homo sapiens) = target: T2, Renin (Homo sapiens) (UniProt P00797); test: Inhibition of recombinant renin (unknown origin)
T2 sequence (whole entry): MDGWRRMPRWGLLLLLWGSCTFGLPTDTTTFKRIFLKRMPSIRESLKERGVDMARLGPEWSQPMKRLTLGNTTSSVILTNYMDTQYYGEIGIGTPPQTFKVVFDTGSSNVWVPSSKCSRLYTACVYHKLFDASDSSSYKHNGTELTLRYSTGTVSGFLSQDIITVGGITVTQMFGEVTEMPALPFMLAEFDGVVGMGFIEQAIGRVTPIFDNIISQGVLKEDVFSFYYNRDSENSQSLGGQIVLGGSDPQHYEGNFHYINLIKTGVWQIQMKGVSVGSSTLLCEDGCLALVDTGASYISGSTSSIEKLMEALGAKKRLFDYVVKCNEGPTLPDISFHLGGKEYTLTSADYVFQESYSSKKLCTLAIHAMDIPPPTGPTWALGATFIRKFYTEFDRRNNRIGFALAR

[16] = target: Cathepsin D (Homo sapiens) (UniProt P07339); test: Inhibition of human liver Cathepsin D
Cathepsin D (Homo sapiens), sequence (P07339 65-162 limits assumed): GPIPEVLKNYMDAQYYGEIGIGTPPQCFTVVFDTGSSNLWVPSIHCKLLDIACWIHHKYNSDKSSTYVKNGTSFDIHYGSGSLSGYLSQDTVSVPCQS
Cathepsin D (Homo sapiens), sequence (P07339 169-412 limits assumed): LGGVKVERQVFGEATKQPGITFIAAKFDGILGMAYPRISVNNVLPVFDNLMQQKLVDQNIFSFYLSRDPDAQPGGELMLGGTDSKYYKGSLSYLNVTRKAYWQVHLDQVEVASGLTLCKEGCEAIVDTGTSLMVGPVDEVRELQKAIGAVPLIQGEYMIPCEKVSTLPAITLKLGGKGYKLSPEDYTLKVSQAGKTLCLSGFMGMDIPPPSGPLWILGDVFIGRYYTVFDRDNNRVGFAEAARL

[17] = target: T1, Beta-secretase 2 (Homo sapiens); test: Inhibition of human BACE2 by mcaFRET assay
[18] = target: Beta-secretase 1 (Homo sapiens) (UniProt P56817); test: Inhibition of BACE1 in HEK293 cells; format: cell-based
Homo sapiens [19] = test: Inhibition of BACE1 in alzheimer's disease patient assessed as reduction of CSF Abeta level at 35 mg/kg; format: functional
Homo sapiens [20] = test: Inhibition of BACE1 in alzheimer's disease patient assessed as reduction of CSF Abeta level at 15 mg/kg; format: functional

CCNc1cc(C(=O)N[C@@H](Cc2ccccc2)[C@H](O)CNCc2cccc(C(F)(F)F)c2)cc(N2CCCCS2(=O)=O)c1
inhibition in vivo at 250 mg/kg (Mus musculus [1]): 23%
inhibition in vivo at 250 mg/kg (Mus musculus [2]): 18%

CC(C)C[C@H](NC(=O)[C@@H]1CC(=O)NCCCCCCOC(=O)N[C@@H](C(C)C)C(=O)N1)[C@@H](O)C[C@@H](C)C(=O)N[C@H](C(=O)NCc1ccccc1)C(C)C
INH [3]: 0.0045 µM
INH [4]: 4 µM

C[C@@H](NC(=O)c1cc(C(=O)N[C@@H](Cc2ccccc2)[C@H](O)[C@@H]2NC(C)(C)N(C)C2=O)cc(N(C)S(C)(=O)=O)c1)c1ccc(F)cc1
INH [4]: 18 µM

C[C@@H](NC(=O)c1cc(C(=O)N[C@@H](Cc2ccccc2)[C@H](O)[C@@H]2NC(C)(C)N(Cc3ccccc3)C2=O)cc(N(C)S(C)(=O)=O)c1)c1ccc(F)cc1
INH [4]: 0.03 µM

C[C@@H]1N[C@@H]([C@@H](O)[C@H](Cc2ccccc2)NC(=O)c2cc(C(=O)N[C@H](C)c3ccc(F)cc3)cc(N(C)S(C)(=O)=O)c2)C(=O)N1Cc1ccccc1
INH [4]: 0.028 µM

C[C@@]1(c2cccc(-c3cncnc3)c2)CCSC(N)=N1
INH [5]: 0.92 µM

Cc1ccc2c(c1)CSC(N)=N2
INH [5]: 790 µM

C[C@@]1(c2cc(-c3cncnc3)c(F)cc2F)CCSC(N)=N1 [LY-2811376]
inhibition in vivo at 90 mg/kg (Homo sapiens [6]): 80%
inhibition in vivo at 90 mg/kg (Homo sapiens [7]): 64%
inhibition in vivo at 5 mg/kg (Canis familiaris [8]): 85%
inhibition in vivo at 5 mg/kg (Canis familiaris [9]): 43%
inhibition in vivo at 5 mg/kg (Canis familiaris [10]): 70%
half-life [11]: 6.8 h
Drug uptake (Brain [12]): 12.12 µg/g
concentration at 1 h [13]: 1920 ng/mL
Drug uptake (Brain [14]): 1.46 µg/g
Drug uptake (Brain [15]): 3.35 µg/g
INH (Sus scrofa): 32.6 µM
INH (Renin (Homo sapiens)): 39 µM
INH [16]: 15.7 µM
INH [17]: 2.8 µM
INH [18]: 0.3 µM
INH [5]: 0.24 µM

NC1=N[C@@]2(c3cc(NC(=O)c4ccc(F)cn4)ccc3F)COC[C@H]2CS1 [LY-2886721]
inhibition in vivo at 35 mg/kg (Homo sapiens [19]): 60%
inhibition in vivo at 15 mg/kg (Homo sapiens [20]): 30%
